Here are results for 1 molecule from paper PMC4805082, “Seizure control by decanoic acid through direct AMPA receptor inhibition” (Brain, 2015).

Read-outs that look alike come from different tables or passages of the source.

Data set [1] has as its target T1, AMPA receptor GluA1/2 (Homo sapiens, UniProt P42261+P42262).
T1 construct: expressed in transfected cells; host or cells: Xenopus laevis oocytes injected with cRNA (1:1 mix)
As to the kind of experiment: Two-electrode voltage clamp, AMPA receptor GluA1/2 expressed in Xenopus oocytes. The class given is cell-based. On the procedure: (§1) The AMPA receptor (flip isoform) cDNAs inserted in a SP6 polymerase expression vector (pSP6T) were a generous gift from Prof. Ralf Schoepfer (NPP, UCL). […] AMPA receptor cRNAs were mixed in a nominal 1:1 ratio and ∼5 ng was injected per oocyte.
(§2) Xenopus laevis oocytes were purchased from the European Xenopus Resource Centre, University of Portsmouth. Stage V to VI oocytes were mechanically dissected and then subjected to gentle shaking for ∼30–50 min at room temperature with modified Barth’s solution (in mM): 88 NaCl, 1 KCl, 2.4 NaHCO3, 0.82 MgCl2, 0.77 CaCl2, 15 Tris-Cl, adjusted to pH 7.4 with NaOH (Sigma-Aldrich), supplemented with 50 IU/ml penicillin and 50 µg/ml streptomycin (Invitrogen) and 50 µg/ml tetracycline (Sigma-Aldrich) and 1% collagenase (type 1A). Healthy oocytes were manually defolliculated and the injections of cRNA for homomeric subunits alone (GluA1), or heteromeric mixtures of two subunits together (GluA1/GluA2 or GluA2/GluA3) were made using an automated Drummond Nanoinject II injector. The oocytes were then incubated at 17°C in modified Barth’s solution for at least 48 h before use in electrophysiological recordings.
Experiments were performed at room temperature (∼21–23°C). […]

Data set [2] has as its target T2, AMPA receptor GluA2/3 (Homo sapiens, UniProt P42262+P42263).
T2 construct: expressed in transfected cells; host or cells: Xenopus laevis oocytes injected with cRNA (1:1 mix)
The data set can be described thus: Two-electrode voltage clamp, AMPA receptor GluA2/3 expressed in Xenopus oocytes. It is filed as cell-based. On the procedure: as §1, §2
Experiments were performed at room temperature (∼21–23°C). […] Current and voltage electrodes were filled with 300 mM KCl and made from thin-walled borosilicate glass (GC150TF-7.5, Harvard Apparatus) using a PC-10 electrode puller (Narashige Instruments) and had resistances of 0.5–2 MΩ. […] Compounds were dissolved in distilled water or DMSO and dissolved in bathing solution to achieve their final concentrations during experiments, and were applied under gravity flow during the experiment by using a multi-valve perfusion system (VC3-8C, ALA Scientific Instruments). The bath solutions were perfused at a rate of 10 ml/min. […] Data acquisition was performed using the Windows PC-based program, WinEDR v3.0.6 (John Dempster, University of Strathclyde, UK).
Statistical analysis was performed using ANOVA with Tukey post hoc test, paired t-test or unpaired t-test.

For data set [3], the system named is AMPA receptor mediated EPSCs in hippocampal CA1 pyramidal neurons. The data set can be described thus: Whole-cell patch clamp, evoked AMPA receptor mediated EPSCs in CA1 pyramidal cells. It is filed as cell-based, rat. As to conditions: n = 6. On the procedure: Male Sprague-Dawley rats (postnatal Days 19–30) were sacrificed using an overdose of isoflurane or pentobarbitone (500 mg/kg). After decapitation the brain was rapidly removed, the hippocampus or entorhinal cortex-hippocampus slices was dissected from the brain and […] thick transverse slices were prepared on a VT1200S vibratome (Leica) or Vibratome (Vibratome® 1500 sectioning system, Intracell). The slicing was performed in ice-cold sucrose-based solution containing (in mM): 75 sucrose, 87 NaCl, 22 glucose, 2.5 KCl, 7 MgCl2, 1.25 NaH2PO4, 0.5 CaCl2 and 25 NaHCO3, pH 7.4, 315–330 mOsm equilibrated with 95% O2 plus 5% CO2. The slices were then stored in a continuously oxygenated humidified interface holding chamber containing oxygenated artificial CSF (in mM): 120 NaCl, 22 glucose, 2.5 KCl, 1.3 MgSO4, 1 NaH2PO4, 25 NaHCO3 and 2.5 CaCl2, pH 7.4 296 mOsm, where they recovered for at least 1 h before use.
For electrophysiological recording, the slices were placed in a recording chamber constantly perfused with 32–34°C oxygenated artificial CSF solution using a gravity-driven perfusion system. Whole-cell patch clamp recordings were performed on CA1 pyramidal cells (input resistance 330 ± 70 MΩ) visualized using an infrared differential contrast imaging system. For patching, standard walled borosilicate glass pipettes with a resistance of 2.5–3.5 MΩ were used, filled with an intracellular pipette solution containing (in mM): 120 Cs-methanesulphonate, 10 HEPES, 0.2 EGTA, 8 NaCl, 0.2 MgCl2, 2 Mg-ATP, 0.3Na-GTP, 5 QX314-Br, 10 phosphocreatine, pH adjusted to 7.2 and osmolality adjusted to 296 mOsm. Series resistance was monitored throughout experiments using a −5 mV step command and cells showing a >20% change in series resistance, a series of resistance of >20 MΩ or an unstable holding current were rejected. Recordings of excitatory postsynaptic currents (EPSCs) were performed in the presence of DL-APV (DL-2-amino-5-phosphonopentanoic; 100 µM), picrotoxin (100 µM) and CGP55845 (5 µM) to block NMDA-, GABAA- and GABAB-receptors, respectively. Decanoic acid (Sigma) was added to the perfusion solution. EPSCs were evoked by stimulation of Schaffer collaterals. Paired pulses were evoked with stimulations separated by 50 ms. Inhibitory postsynaptic current (IPSCs) were recorded in the presence of DL-APV (100 µM), NBQX (10 µM) and CGP55845 (5 µM) to block NMDA-, AMPA- and GABAB-receptors, respectively.
Recordings were obtained using a MultiClamp 700B amplifier (Axon instruments) and filtered at 4 kHz, digitized at 10 kHz, and stored on a PC. LabView8 (National instruments) was used for data acquisition and off-line analysis.

Details of data set [4]: method as in earlier work. Particulars: average; children with intractable epilepsy on MCT diet; ref Haidukewych et al., 1982; Sills et al., 1986a; Dean et al., 1989; cited from earlier work.

T2 sequence (P42262 22-883 isoform P42262-2 limits assumed): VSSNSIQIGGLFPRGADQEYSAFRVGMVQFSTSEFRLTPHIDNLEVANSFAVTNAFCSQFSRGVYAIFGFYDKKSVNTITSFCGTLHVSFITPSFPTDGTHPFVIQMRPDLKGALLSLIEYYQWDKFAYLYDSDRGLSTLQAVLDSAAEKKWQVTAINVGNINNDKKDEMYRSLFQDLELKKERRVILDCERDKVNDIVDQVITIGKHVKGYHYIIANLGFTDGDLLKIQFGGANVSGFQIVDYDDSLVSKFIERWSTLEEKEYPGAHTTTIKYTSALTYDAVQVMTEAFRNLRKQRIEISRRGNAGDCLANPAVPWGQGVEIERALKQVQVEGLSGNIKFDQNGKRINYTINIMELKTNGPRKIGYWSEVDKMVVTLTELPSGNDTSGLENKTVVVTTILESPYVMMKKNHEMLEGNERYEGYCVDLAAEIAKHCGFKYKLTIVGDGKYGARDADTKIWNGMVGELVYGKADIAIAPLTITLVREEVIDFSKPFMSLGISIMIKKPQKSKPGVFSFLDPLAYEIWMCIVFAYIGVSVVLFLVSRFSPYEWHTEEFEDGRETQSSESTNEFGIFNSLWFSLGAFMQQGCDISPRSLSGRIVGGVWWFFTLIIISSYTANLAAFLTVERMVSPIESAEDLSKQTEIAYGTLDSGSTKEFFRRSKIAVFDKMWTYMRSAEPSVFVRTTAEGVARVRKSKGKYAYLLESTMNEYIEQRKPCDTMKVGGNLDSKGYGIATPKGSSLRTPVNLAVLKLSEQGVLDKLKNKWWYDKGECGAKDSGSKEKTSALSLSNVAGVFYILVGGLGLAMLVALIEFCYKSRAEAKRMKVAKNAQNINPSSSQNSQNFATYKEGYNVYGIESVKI
T2 sequence (P42263 29-894 isoform P42263-2 limits assumed): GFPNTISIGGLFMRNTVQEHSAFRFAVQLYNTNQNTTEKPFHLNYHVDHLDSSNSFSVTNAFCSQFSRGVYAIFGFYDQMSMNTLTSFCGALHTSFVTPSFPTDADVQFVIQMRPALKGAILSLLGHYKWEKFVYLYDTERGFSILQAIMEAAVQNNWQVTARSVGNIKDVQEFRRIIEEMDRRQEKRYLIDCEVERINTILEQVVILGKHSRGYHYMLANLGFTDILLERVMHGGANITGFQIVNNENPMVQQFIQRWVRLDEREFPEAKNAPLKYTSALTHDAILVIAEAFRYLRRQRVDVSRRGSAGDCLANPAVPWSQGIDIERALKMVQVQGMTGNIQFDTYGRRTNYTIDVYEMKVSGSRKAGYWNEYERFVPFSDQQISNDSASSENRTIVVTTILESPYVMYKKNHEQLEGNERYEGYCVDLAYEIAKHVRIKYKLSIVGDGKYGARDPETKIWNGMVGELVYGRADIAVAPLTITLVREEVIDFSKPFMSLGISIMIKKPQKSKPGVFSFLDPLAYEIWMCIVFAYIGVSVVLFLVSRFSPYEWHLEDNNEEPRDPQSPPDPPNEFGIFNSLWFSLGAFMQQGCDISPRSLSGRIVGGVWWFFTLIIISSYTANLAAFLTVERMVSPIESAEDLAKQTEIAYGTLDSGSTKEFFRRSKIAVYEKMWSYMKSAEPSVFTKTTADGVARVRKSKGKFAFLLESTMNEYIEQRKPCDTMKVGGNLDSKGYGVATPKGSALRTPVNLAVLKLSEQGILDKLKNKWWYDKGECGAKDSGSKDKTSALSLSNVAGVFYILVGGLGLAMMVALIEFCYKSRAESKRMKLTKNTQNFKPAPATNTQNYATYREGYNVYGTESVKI
T1 sequence (P42261 19-906 isoform P42261-2 limits assumed): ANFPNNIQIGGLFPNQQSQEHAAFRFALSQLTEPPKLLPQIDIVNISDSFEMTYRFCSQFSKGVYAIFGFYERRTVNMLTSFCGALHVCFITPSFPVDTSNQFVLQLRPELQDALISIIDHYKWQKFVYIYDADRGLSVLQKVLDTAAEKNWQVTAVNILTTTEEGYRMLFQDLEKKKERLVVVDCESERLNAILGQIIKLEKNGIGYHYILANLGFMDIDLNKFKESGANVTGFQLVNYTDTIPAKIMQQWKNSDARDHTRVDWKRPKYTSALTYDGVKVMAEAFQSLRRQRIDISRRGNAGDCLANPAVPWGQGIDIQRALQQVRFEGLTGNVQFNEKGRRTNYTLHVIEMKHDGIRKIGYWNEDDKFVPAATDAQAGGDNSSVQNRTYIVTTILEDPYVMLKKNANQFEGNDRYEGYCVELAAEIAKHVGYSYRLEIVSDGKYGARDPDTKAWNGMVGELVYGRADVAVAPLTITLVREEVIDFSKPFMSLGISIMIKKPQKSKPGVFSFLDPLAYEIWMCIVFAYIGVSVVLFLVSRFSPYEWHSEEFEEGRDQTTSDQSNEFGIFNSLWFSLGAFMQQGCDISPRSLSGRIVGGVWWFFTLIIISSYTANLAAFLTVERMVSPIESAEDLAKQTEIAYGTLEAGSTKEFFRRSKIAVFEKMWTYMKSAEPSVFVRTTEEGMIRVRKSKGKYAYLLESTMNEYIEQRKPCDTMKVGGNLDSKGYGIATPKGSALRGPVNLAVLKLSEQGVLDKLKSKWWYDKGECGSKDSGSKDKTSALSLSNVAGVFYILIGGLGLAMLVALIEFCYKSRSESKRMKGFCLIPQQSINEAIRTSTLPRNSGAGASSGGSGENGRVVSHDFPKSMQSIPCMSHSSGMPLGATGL
T1 sequence (P42262 22-883 isoform P42262-2 limits assumed): as the sequence (P42262 22-883 isoform P42262-2 limits assumed) above

On to `CCCCCCCCCC(=O)O` [decanoic acid], for which the IC50 was found to be 1160 µM in data set [1]; 430 ± 90 µM in data set [2] (glutamate 100 µM, membrane potential −40 mV, n = 6, read-out: IC50); 1110 ± 50 µM in data set [2] (glutamate 100 µM, membrane potential −80 mV, n = 6, read-out: IC50); 520 ± 20 µM in data set [2] (glutamate 100 µM, read-out: IC50, inhibition of glutamate-induced AMPA receptor current); 540 ± 30 µM in data set [2] (glutamate 1 mM, n = 10, read-out: IC50, inhibition of glutamate-induced AMPA receptor current). The inhibition at 100 µM in data set [2] (100 µM, read-out: inhibition of AMPA-mediated currents) was approximately 20%. Besides, the “decrease in AMPA receptor responses” value in data set [2] (1 mM) is listed as 60–70%. Further, the “AMPA receptor current following activation with AMPA” value in data set [2] (agonist AMPA 30 µM, n = 8) was 16.7 ± 2.7 % of AMPA alone. Also, the AMPA receptor currents in data set [2] (compound 1 mM, currents elicited by 100 µM L-glutamate, −50 mV) is on record as 32.4 ± 2.0 % of control. In addition, the “decrease of EPSC amplitude” value in data set [3] (100 µM) worked out at 17.0 ± 5.6%; in data set [3] (300 µM), 38.9 ± 5.5%. Also, in data set [3] (300 µM, versus baseline), the “effect on 1/CV^2 for EPSCs” value is reported as “no effect”. The “effect on paired pulse ratio for EPSCs” value in data set [3] (300 µM, versus baseline) is “did not affect”. In data set [4], the serum concentration is listed as 156.7 µM.
